These results are taken from patent US11155560B2, “Substituted pyrazolo[1,5-a]pyrimidines for modulating CDK9 activity” (Kronos Bio, Inc., priority 2018, dated 2021).

The structures appear in SMILES notation. pIC50: −log10 of the molar value.

The target in one experiment is CDK9/cyclin T1 (Homo sapiens, UniProt P50750). Description: CDK9/cyclin T1 inhibition, radiometric assay. As to conditions: radiometric assay, reaction time 60 minutes, 10 μM ATP, 10-dose IC50; compounds 1-34 and control Staurosporine; read-out: CDK9/cyclin T1 Potency Grade. It counts as biochemical. The method, then: Exemplary compounds of the invention (1-34) were tested for inhibition of CDK9/cyclin T1. […] Reactions were carried out at 10 μM ATP. Data was normalized to positive and negative controls and curve fits were executed with GraphPad software and were performed where the enzyme activities at the highest concentration of compounds were less than 65%.
Sequence of CDK9/cyclin T1 (P50750 whole entry): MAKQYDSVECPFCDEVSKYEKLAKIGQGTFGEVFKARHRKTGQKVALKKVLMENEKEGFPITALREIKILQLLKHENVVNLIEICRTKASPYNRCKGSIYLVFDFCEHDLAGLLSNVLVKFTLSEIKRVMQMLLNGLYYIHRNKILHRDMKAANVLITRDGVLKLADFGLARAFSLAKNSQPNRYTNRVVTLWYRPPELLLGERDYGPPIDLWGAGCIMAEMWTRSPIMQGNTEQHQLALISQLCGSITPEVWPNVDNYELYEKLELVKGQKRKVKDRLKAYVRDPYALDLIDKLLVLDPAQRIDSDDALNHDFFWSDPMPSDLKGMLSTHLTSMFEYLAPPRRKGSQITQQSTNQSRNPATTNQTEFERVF
Sequence of CDK9/cyclin T1 (O60563 whole entry partner): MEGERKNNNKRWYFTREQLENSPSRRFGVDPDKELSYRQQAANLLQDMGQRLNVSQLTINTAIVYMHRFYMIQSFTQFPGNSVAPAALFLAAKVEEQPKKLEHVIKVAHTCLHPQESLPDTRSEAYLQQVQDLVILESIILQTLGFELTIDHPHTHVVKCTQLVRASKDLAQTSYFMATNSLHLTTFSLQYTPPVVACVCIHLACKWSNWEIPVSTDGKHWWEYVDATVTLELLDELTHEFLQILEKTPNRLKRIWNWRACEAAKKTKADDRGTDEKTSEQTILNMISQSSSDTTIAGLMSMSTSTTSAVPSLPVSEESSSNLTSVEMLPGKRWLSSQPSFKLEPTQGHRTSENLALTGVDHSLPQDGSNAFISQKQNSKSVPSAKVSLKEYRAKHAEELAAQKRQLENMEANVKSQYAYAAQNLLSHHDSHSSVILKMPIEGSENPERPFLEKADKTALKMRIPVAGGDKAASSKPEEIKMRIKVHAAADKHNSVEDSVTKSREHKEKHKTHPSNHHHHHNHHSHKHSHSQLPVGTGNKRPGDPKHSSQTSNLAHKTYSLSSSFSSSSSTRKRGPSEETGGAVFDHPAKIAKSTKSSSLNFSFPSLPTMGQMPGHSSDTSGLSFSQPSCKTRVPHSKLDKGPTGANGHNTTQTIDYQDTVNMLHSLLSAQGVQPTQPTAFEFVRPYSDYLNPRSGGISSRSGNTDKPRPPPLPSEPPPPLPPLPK
With `N[C@@H]1CC[C@@H](Nc2cc(C3CC3)nc3ccnn23)C1` [Compound 32, [(1R,3R)-3-[(5-cycloproylpyrazolo[1,5-a]pyrimidin-7-yl)amino]cyclopentyl]ammonium; 2,2,2-trifluoroacetate], the pIC50 is 6.30 to 9.00.

The experiment is the same for the next values; noted with them: read-out: CDK9/cyclin T1 Potency Grade.
Take `N[C@H]1CC[C@@H](Nc2cc(C3CCCC3)nc3ccnn23)C1` [Compound 15, (1 S,3R)—N3-(5-cyclopentylpyrazolo[1,5-a]pyrimidin-7-yl)cyclopentane-1,3-diamine]: the pIC50 is 6.30 to 9.00.
On the same count and under the same terms, the result for `CC(C)c1cc(NC2CCCC2)n2nccc2n1` [Compound 2, N-cyclopentyl-5-isopropyl-pyrazolo[1,5-a]pyrimidin-7-amine] reads 6.30 to 9.00; that for `Cc1cc(N[C@H]2CC[C@H](N)CC2)n2nccc2n1` [Compound 4, [4-[(5-methylpyrazolo[1,5-a]pyrimidin-4-ium-7-yl)amino]cyclohexyl]ammonium dichloride], 6.00 to 6.30.
Turning to `CCC(C)c1cc(N[C@H]2C[C@H](N)C2)n2nccc2n1` (stereo partly shown) [Compound 19, N1-(5-sec-butylpyrazolo[1,5-a]pyrimidin-7-yl)cyclobutane-1,3-diamine], the pIC50 is 6.30 to 9.00.
With `Cc1cc(N[C@H]2CC[C@H](N)C2)n2nccc2n1` [Compound 24, (1S,3S)—N3-(5-methylpyrazolo[1,5-a]pyrimidin-7-yl)cyclopentane-1,3-diamine], the pIC50 was 6.00 to 6.30.
Still for that read-out and setting: as for `CCC(C)c1cc(NC2CCCC2)n2nccc2n1` (stereo not shown) [Compound 3, N-cyclopentyl-5-sec-butyl-pyrazolo[1,5-a]pyrimidin-7-amine], the figure is 6.30 to 9.00.
